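Exposure lasted 48 hours, with cells grown in 96-well plates and compounds tested at five concentrations. GI50 marks 50% less growth.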 Calls of active or inactive are those of the source. No stated cut-off is given here; in the data, active = GI50 up to about 1.1 µM and inactive = higher.
Columns and labels:
Assay in all cases: NCI anticancer screen, dose series, 48 h
786-0 = system: 786-0
BT-549 = system: BT-549
CAKI-1 = system: CAKI-1
DU-145 = system: DU-145
MDA-MB-231 = system: MDA-MB-231
MDA-MB-435 = system: MDA-MB-435
MOLT-4 = system: MOLT-4
Malme-3M = system: Malme-3M
NCI-H23 = system: NCI-H23
NCI-H460 = system: NCI-H460
OVCAR-4 = system: OVCAR-4
OVCAR-8 = system: OVCAR-8
PC-3 = system: PC-3
TK-10 = system: TK-10
UACC-62 = system: UACC-62
UO-31 = system: UO-31
HL-60 = system: HL-60
K562 = system: K562
NCI-H226 = system: NCI-H226
SK-MEL-28 = system: SK-MEL-28

Measured: GI50

O=C(CCCCCCCCC(=O)N1C(=O)CC(=O)N(c2cccc(Cl)c2)C1=S)N1C(=O)CC(=O)N(c2cccc(Cl)c2)C1=S
inactive: 786-0 45.6 µM | BT-549 44.1 µM | CAKI-1 20.5 µM | DU-145 89.7 µM | MDA-MB-231 24.6 µM | MDA-MB-435 59.8 µM | MOLT-4 20 µM | Malme-3M 66.1 µM | NCI-H23 39.7 µM | NCI-H460 45.9 µM | OVCAR-4 37.7 µM | OVCAR-8 34.9 µM | PC-3 26.6 µM | TK-10 56.9 µM | UACC-62 21.9 µM | UO-31 27.5 µM

FC(F)(F)c1cccc(COCCN2CCN(Cc3cccc(C(F)(F)F)c3)CC2)c1
inactive: 786-0 15.3 µM | BT-549 15.6 µM | CAKI-1 17.5 µM | DU-145 17 µM | HL-60 36.6 µM | K562 11.8 µM | MDA-MB-231 19.3 µM | MOLT-4 7.91 µM | Malme-3M 8.09 µM | NCI-H226 17 µM | NCI-H23 17.9 µM | NCI-H460 16.3 µM | OVCAR-4 17.7 µM | OVCAR-8 18.7 µM | PC-3 9.33 µM | SK-MEL-28 17.8 µM | TK-10 13.7 µM | UACC-62 15.3 µM | UO-31 12.3 µM

C(=N\c1ccc(-c2nc3ccccc3s2)cc1)/c1ccc[nH]1
inactive: 786-0 21.9 µM | BT-549 17.3 µM | CAKI-1 22.8 µM | DU-145 17.3 µM | HL-60 16.5 µM | K562 20.4 µM | MDA-MB-435 19.2 µM | MOLT-4 11.7 µM | Malme-3M 18.2 µM | NCI-H226 14.8 µM | NCI-H23 16.8 µM | NCI-H460 17.1 µM | OVCAR-4 23.8 µM | OVCAR-8 27.6 µM | PC-3 14.9 µM | SK-MEL-28 20.1 µM | TK-10 31.8 µM | UACC-62 15.6 µM | UO-31 17.4 µM

O=C1CSC(=S)N1c1ccc(F)cc1F
inactive: 786-0 > 100 µM | BT-549 39.6 µM | CAKI-1 45.3 µM | DU-145 > 100 µM | MDA-MB-231 > 100 µM | MDA-MB-435 35.6 µM | Malme-3M 66.5 µM | NCI-H226 > 100 µM | NCI-H23 46.5 µM | NCI-H460 83.2 µM | OVCAR-4 49.2 µM | OVCAR-8 58.3 µM | PC-3 > 100 µM | SK-MEL-28 78.7 µM | TK-10 94.4 µM | UACC-62 70.8 µM | UO-31 89.9 µM

O=C(Cn1c2c(c3ccccc31)CCCC2)N1CCCC1
inactive: 786-0 > 100 µM | BT-549 > 100 µM | CAKI-1 > 100 µM | HL-60 94.6 µM | K562 > 10 µM | MDA-MB-435 77.1 µM | Malme-3M > 100 µM | NCI-H23 > 100 µM | NCI-H460 > 100 µM | OVCAR-4 27.4 µM | OVCAR-8 > 100 µM | PC-3 > 100 µM | SK-MEL-28 > 100 µM | TK-10 > 100 µM | UACC-62 78.5 µM | UO-31 38.4 µM

O=c1cc(CO)n(CCc2c[nH]c3ccccc23)cc1O
inactive: 786-0 34.8 µM | BT-549 > 100 µM | CAKI-1 46.2 µM | DU-145 28.2 µM | MDA-MB-231 31.3 µM | MDA-MB-435 > 100 µM | MOLT-4 6.21 µM | Malme-3M 13.4 µM | NCI-H23 73.8 µM | NCI-H460 33.3 µM | OVCAR-8 69.7 µM | PC-3 > 100 µM | TK-10 > 100 µM | UACC-62 23.9 µM | UO-31 49.1 µM

CN(C)/N=C1/CCC(C(F)(F)F)(C(F)(F)F)O1
inactive: 786-0 29.4 µM | CAKI-1 41 µM | DU-145 47 µM | HL-60 28.3 µM | K562 40.7 µM | MDA-MB-231 25.4 µM | MDA-MB-435 27.5 µM | MOLT-4 37.2 µM | Malme-3M 23.3 µM | NCI-H226 26.3 µM | NCI-H23 37.4 µM | NCI-H460 41 µM | OVCAR-4 47.6 µM | PC-3 28.9 µM | SK-MEL-28 39.6 µM | TK-10 51.4 µM | UACC-62 28.1 µM | UO-31 28.4 µM

Cc1ccc(NC2=CC(=O)C(NO)c3ccccc32)cc1 (stereo not drawn)
inactive: 786-0 5.16 µM | BT-549 3.66 µM | CAKI-1 2.5 µM | DU-145 2.56 µM | HL-60 2 µM | MDA-MB-231 2.21 µM | MDA-MB-435 1.89 µM | MOLT-4 2.74 µM | NCI-H226 19.9 µM | NCI-H23 1.64 µM | NCI-H460 3.22 µM | OVCAR-4 2.99 µM | OVCAR-8 1.63 µM | SK-MEL-28 8.13 µM | TK-10 16.8 µM | UACC-62 1.51 µM | UO-31 2.82 µM

CCOC(=O)/C(C(=S)NC)=C(/N)N1CCCC1
inactive: 786-0 > 100 µM | CAKI-1 77.1 µM | DU-145 > 100 µM | HL-60 > 100 µM | K562 > 100 µM | MDA-MB-231 > 100 µM | MDA-MB-435 > 100 µM | MOLT-4 > 100 µM | Malme-3M > 100 µM | NCI-H226 > 100 µM | NCI-H23 > 100 µM | NCI-H460 > 100 µM | OVCAR-4 > 100 µM | OVCAR-8 > 100 µM | PC-3 > 100 µM | SK-MEL-28 > 100 µM | TK-10 > 100 µM | UACC-62 > 100 µM | UO-31 71.6 µM

CC(C)OC(=O)C1(C(C)C)CCc2ccc(C(=O)CCC(=O)O)cc21 (stereo not drawn)
inactive: 786-0 > 100 µM | BT-549 > 100 µM | CAKI-1 > 100 µM | DU-145 > 100 µM | HL-60 > 100 µM | K562 > 100 µM | MDA-MB-231 > 100 µM | MOLT-4 > 100 µM | Malme-3M > 100 µM | NCI-H226 > 100 µM | NCI-H23 > 100 µM | NCI-H460 > 100 µM | OVCAR-4 > 100 µM | OVCAR-8 > 100 µM | PC-3 > 100 µM | SK-MEL-28 > 100 µM | TK-10 > 100 µM | UACC-62 > 100 µM | UO-31 > 100 µM

COc1cc(/C=C/C(C)=O)ccc1OP(=O)(O)O
inactive: 786-0 > 100 µM | BT-549 > 100 µM | CAKI-1 > 100 µM | DU-145 > 100 µM | MDA-MB-231 > 100 µM | MDA-MB-435 > 100 µM | MOLT-4 > 100 µM | Malme-3M > 100 µM | NCI-H226 > 100 µM | NCI-H23 > 100 µM | NCI-H460 > 100 µM | OVCAR-4 > 100 µM | OVCAR-8 > 100 µM | PC-3 > 100 µM | SK-MEL-28 > 100 µM | TK-10 > 100 µM | UACC-62 > 100 µM | UO-31 > 100 µM
